Assay [1] deals with TRPV3-6M/V2P (pore domain of rat TRPV2 in TRPV3-6M). In words: Two-electrode voltage clamp, TRPV3-6M/V2P chimera in oocytes. The conditions noted are these: RR 50 µM. The class given is cell-based, mouse. As for the experimental part:
All channel constructs were expressed in Xenopus laevis oocytes and studied using the two-electrode voltage clamp technique (TEVC) following 1–4 days of incubation after cRNA injection. The animal care and experimental procedures were performed in accordance with the Guide for the Care and Use of Laboratory Animals and were approved by the Animal Care and Use Committee of the National Institute of Neurological Disorders and Stroke (Animal protocol number 1253–17). Oocytes were removed surgically and incubated with agitation for 1 hr in a solution containing (in mM) 82.5 NaCl, 2.5 KCl, 1 MgCl2, 5 HEPES, pH 7.6 (with NaOH), and collagenase (2 mg/ml; Worthington Biochemical, Lakewood, NJ). Defolliculated oocytes were injected with cRNA for each of the constructs and incubated at 17°C in a solution containing (in mM) 96 NaCl, 2 KCl, 1 MgCl2, 1.8 CaCl2, 5 HEPES, pH 7.6 (with NaOH), and gentamicin (50 μg/ml, GIBCO-BRL, Gaithersburg, MD). Oocyte membrane voltage was controlled using an OC-725C oocyte clamp (Warner Instruments, Hamden, CT). Data were filtered at 1–3 kHz and digitized at 20 kHz using pClamp software (Molecular Devices, Sunnyvale, CA) and a Digidata 1440A digitizer (Axon Instruments). Microelectrode resistances were 0.1–1 MΩ when filled with 3 M KCl. For recording TRP channel currents, the external recording solution contained (in mM) 100 KCl, 10 HEPES, pH 7.6 (with KOH). […]
For temperature-activation experiments, calcium-activated chloride currents were minimized by using calcium-free solution containing 30 µM Caccinh-A01 and recording at negative membrane voltages. Heat stimuli were achieved by passing the external recording solution through glass capillary spirals immersed in a water bath maintained at about 70°C, and recordings were performed during constant perfusion with temperature measured using a thermistor (TA-29, Warner Instruments) located close to the cell. […] The mean I vs T relations were calculated by automatically binning each of the recordings in temperature intervals of 2°C, and averaging a single data point within each interval per cell. […]

Assay [2] addresses T1, TRPV3-6M + 5PM (Mus musculus, UniProt Q8K424, A560T/A606V/F522S/F625L/F656I/F666Y/H523E/L557M/Q580E/V587L/W521Y).
T1 construct: expressed in transfected cells; host or cells: Xenopus laevis oocytes
T1 sequence (Q8K424 1-791 W521Y/F522S/H523E/L557M/A560T/Q580E/V587L/A606V/F625L/F656I/F666Y): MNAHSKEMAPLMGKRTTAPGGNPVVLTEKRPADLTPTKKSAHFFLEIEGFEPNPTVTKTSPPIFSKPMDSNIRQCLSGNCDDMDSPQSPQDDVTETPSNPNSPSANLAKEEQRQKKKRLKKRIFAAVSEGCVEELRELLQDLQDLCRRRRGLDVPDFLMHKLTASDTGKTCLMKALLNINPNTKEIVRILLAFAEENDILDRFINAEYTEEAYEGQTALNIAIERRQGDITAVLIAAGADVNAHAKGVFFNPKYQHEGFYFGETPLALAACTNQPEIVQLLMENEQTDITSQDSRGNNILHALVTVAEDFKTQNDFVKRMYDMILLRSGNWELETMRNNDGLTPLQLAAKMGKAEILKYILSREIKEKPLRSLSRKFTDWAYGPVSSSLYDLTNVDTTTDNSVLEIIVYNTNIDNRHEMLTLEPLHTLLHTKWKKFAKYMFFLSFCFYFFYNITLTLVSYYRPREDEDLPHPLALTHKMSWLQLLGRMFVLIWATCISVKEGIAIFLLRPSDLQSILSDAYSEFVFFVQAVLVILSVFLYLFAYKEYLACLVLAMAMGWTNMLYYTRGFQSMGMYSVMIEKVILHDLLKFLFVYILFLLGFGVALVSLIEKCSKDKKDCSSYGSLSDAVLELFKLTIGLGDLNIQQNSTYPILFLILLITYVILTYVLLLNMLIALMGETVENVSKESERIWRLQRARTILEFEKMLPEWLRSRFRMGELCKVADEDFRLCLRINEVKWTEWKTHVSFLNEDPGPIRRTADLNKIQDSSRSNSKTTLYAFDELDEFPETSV
Briefly: Two-electrode voltage clamp, TRPV3-6M + 5PM in oocytes. Type of assay: cell-based. The conditions noted are these: capsaicin 20 μM, ±60 mV. As for the experimental part:
All channel constructs were expressed in Xenopus laevis oocytes and studied using the two-electrode voltage clamp technique (TEVC) following 1–4 days of incubation after cRNA injection. The animal care and experimental procedures were performed in accordance with the Guide for the Care and Use of Laboratory Animals and were approved by the Animal Care and Use Committee of the National Institute of Neurological Disorders and Stroke (Animal protocol number 1253–17). Oocytes were removed surgically and incubated with agitation for 1 hr in a solution containing (in mM) 82.5 NaCl, 2.5 KCl, 1 MgCl2, 5 HEPES, pH 7.6 (with NaOH), and collagenase (2 mg/ml; Worthington Biochemical, Lakewood, NJ). Defolliculated oocytes were injected with cRNA for each of the constructs and incubated at 17°C in a solution containing (in mM) 96 NaCl, 2 KCl, 1 MgCl2, 1.8 CaCl2, 5 HEPES, pH 7.6 (with NaOH), and gentamicin (50 μg/ml, GIBCO-BRL, Gaithersburg, MD). Oocyte membrane voltage was controlled using an OC-725C oocyte clamp (Warner Instruments, Hamden, CT). Data were filtered at 1–3 kHz and digitized at 20 kHz using pClamp software (Molecular Devices, Sunnyvale, CA) and a Digidata 1440A digitizer (Axon Instruments). Microelectrode resistances were 0.1–1 MΩ when filled with 3 M KCl. For recording TRP channel currents, the external recording solution contained (in mM) 100 KCl, 10 HEPES, pH 7.6 (with KOH). Experiments were performed at room temperature (~22°C), except as indicated otherwise. […] Current time courses were obtained by stepping membrane voltage every 2 s from a holding potential of 0 mV to either −60 or +60 mV for 100 ms, and plotting the mean steady-state current at the end of each voltage step as a function of total recording time. I-V relations were obtained similarly, but voltage was stepped every 2 s to a different value, in 10 mV increments and starting at −60 mV.
For orientation: Two-electrode voltage clamp holds a large cell at a set potential and records current.

The values that follow come from publication PMC6333442, “Conserved allosteric pathways for activation of TRPV3 revealed through engineering vanilloid-sensitivity” (eLife, 2019).

Take `N.N.N.N.N.N.N.N.N.N.N.N.N.N.[Cl-].[Cl-].[Cl-].[Cl-].[Cl-].[Cl-].[O-2].[O-2].[Ru+3].[Ru+3].[Ru+4]` [RR, ruthenium red]: the “block of RTx-activated current” value in assay [1] is reported as “readily blocked”.

On to `COc1cc(CNC(=O)CCCC/C=C/C(C)C)ccc1O` [capsaicin], for which the “channel activation (current response)” value in assay [2] is listed as “cannot be activated”.
